{"source": "paper PMC4266903", "about": "“Hydroxylation index of omeprazole in relation to CYP2C19 polymorphism and sex in a healthy Iranian population” (DARU Journal of Pharmaceutical Sciences, 2014)", "experiment": "Plasma concentration of omeprazole and hydroxyomeprazole by HPLC 3 hours after a single oral 20 mg omeprazole dose", "assay_type": "in vivo, human", "details": "for Mean OH-OMP concentration ± SD: plasma, 3 h after single oral 20 mg omeprazole", "description": "The study protocol was approved by ethics committee of Tehran University of Medical Sciences (ethical no. 11208). Generally one hundred and eighty (60 women and 120 men) unrelated healthy Iranian volunteers with the mean age of between 20–55 years and average body weight of 45–89 kg took part in this study. All participants signed written informed consent of this project. The study was completed by contribution of faculties of pharmacy of Tehran, Yazd, Kermanshah and Kerman University of Medical Sciences. The participants were students or stuffs of pharmacy schools, with no history of any illness or medicine consumption. No smoking and consumption of medicine that would affect CYP2C19 activity was permitted for one week before and during the study.\nAfter an overnight fast for at least 8 hours, volunteers took 20 mg omeprazole capsule (Abidi pharmaceuticals) with 250 milliliter tap water. Ten ml venous blood sample was collected from each subject 3 hours after administration of omeprazole and transferred into tubes containing 10 μl of 10% EDTA. Five ml of blood samples were centrifuged for 5 min at 4000 rpm and the plasma was separated and transferred to Eppendorf tube and stored at −80°C up to the day of analysis. The other 5 ml blood samples were stored directly in −80°C for genotyping analysis.\nOmeprazole powder was purchased from TMAD (Iran). 5-hydroxyomeprazole was a kind donation by AstraZeneca (Sweden). The concentration of omeprazole and 5-hydroxyomeprazole was analyzed by HPLC method as described by Rezk et al. with a few modifications. Briefly 500 μl plasma was extracted by liquid-liquid extraction using 1500 μl ethyl acetate. After orbital mixing for 10 min and centrifuging at 4000 × g for 10 min, the upper organic layer was separated and transferred to glass tube and then evaporated to dryness under gentle stream of air. Finally the residue was dissolved in 250 μl mobile phase and 100 μl of this sample was injected to HPLC system. The mobile phase was a combination of dibasic sodium phosphate buffer (0.025 mol/lit, pH 6): acetonitrile: methanol (73: 18: 8 V/V/V). The HPLC apparatus consisted of a low pressure HPLC pump, UV detector (λ = 302 nm) all from Knauer (Berlin, Germany). The chromatographic separation was performed by using Chromolit™ Performance RP-18e 100 mm × 4.6 mm, 5 μm particle size. Flow rate was adjusted to 1 ml/min.", "data": [{"smiles": "COc1ccc2nc([S+]([O-])Cc3ncc(CO)c(OC)c3C)[nH]c2c1", "note": "(stereo not shown) [hydroxyomeprazole, 5-hydroxyomeprazole]", "values": [{"measurement": "Hydroxyomeprazole plasma concentration, women compared with men", "setting": "60 women vs 120 men, P > 0.05", "value": "not statistically different"}, {"measurement": "Mean OH-OMP concentration ± SD", "setting": "genotype 1*1, Men (53)", "value": "151.01 ± 26.38", "unit": "ng/mL"}, {"measurement": "Mean OH-OMP concentration ± SD", "setting": "genotype 1*1, Total (75)", "value": "163.74 ± 32.25", "unit": "ng/mL"}, {"measurement": "Mean OH-OMP concentration ± SD", "setting": "genotype 1*1, Women (22)", "value": "194.40 ± 60.84", "unit": "ng/mL"}, {"measurement": "Mean OH-OMP concentration ± SD", "setting": "genotype 1*2, Men (20)", "value": "165.53 ± 23.55", "unit": "ng/mL"}, {"measurement": "Mean OH-OMP concentration ± SD", "setting": "genotype 1*2, Total (33)", "value": "177.79 ± 38.39", "unit": "ng/mL"}, {"measurement": "Mean OH-OMP concentration ± SD", "setting": "genotype 1*2, Women (13)", "value": "194.66 ± 52.56", "unit": "ng/mL"}, {"measurement": "Mean OH-OMP concentration ± SD", "setting": "genotype 1*17, Men (37)", "value": "178.07 ± 44.57", "unit": "ng/mL"}, {"measurement": "Mean OH-OMP concentration ± SD", "setting": "genotype 1*17, Total (52)", "value": "177.05 ± 37.53", "unit": "ng/mL"}, {"measurement": "Mean OH-OMP concentration ± SD", "setting": "genotype 1*17, Women (15)", "value": "174.51 ± 28.01", "unit": "ng/mL"}, {"measurement": "Mean OH-OMP concentration ± SD", "setting": "genotype 2*2, Men (1)", "value": 103.58, "unit": "ng/mL"}, {"measurement": "Mean OH-OMP concentration ± SD", "setting": "genotype 2*2, Total (4)", "value": "104.67 ± 10.55", "unit": "ng/mL"}, {"measurement": "Mean OH-OMP concentration ± SD", "setting": "genotype 2*2, Women (3)", "value": "105.03 ± 13.80", "unit": "ng/mL"}, {"measurement": "Mean OH-OMP concentration ± SD", "setting": "genotype 2*17, Men (2)", "value": "169.82 ± 84.95", "unit": "ng/mL"}, {"measurement": "Mean OH-OMP concentration ± SD", "setting": "genotype 2*17, Total (6)", "value": "172.79 ± 63.58", "unit": "ng/mL"}, {"measurement": "Mean OH-OMP concentration ± SD", "setting": "genotype 2*17, Women (4)", "value": "178.72 ± 33.59", "unit": "ng/mL"}, {"measurement": "Mean OH-OMP concentration ± SD", "setting": "genotype 17*17, Men (5)", "value": "201.69 ± 32.08", "unit": "ng/mL"}, {"measurement": "Mean OH-OMP concentration ± SD", "setting": "genotype 17*17, Total (10)", "value": "203.31 ± 34.93", "unit": "ng/mL"}, {"measurement": "Mean OH-OMP concentration ± SD", "setting": "genotype 17*17, Women (5)", "value": "204.92 ± 41.35", "unit": "ng/mL"}]}]}
